This is an account of results in US20020188202A1, “Method of diagnosis and treatment and related compositions and apparatus” (priority 1996, published 2002).

Data set [1] relates to patients with cerebral vasospasm. The experiment in a line: Vasoactive medications tried on Applicant's patients with vasospasm, monitored by Transcranial Doppler (TCD), exam and symptoms. The note with it: for effectiveness in treating the vasospasm: qualitative rating in Applicant's patient population (tend to be the most severe cases); for effect on vessels seen on TCD / ultrasound (vasoconstriction or dilatation) / headache / neurological exam and other neurological abnormalities: human, in vivo; for EEG abnormalities and neurocognitive or neurological complaints / change of the vasospasm: anti-epileptic drugs in therapeutic doses.

Data set [2] concerns patient with migraine, schizophrenic reaction and vasospasm. The experiment in a line: Case study: psychosis caused by cerebral ischemia, EEG and TCD. Type of data set: in vivo, human patient. Conditions: single patient; for response of psychosis (hallucinations and delusions): in hospital.
Data set [3] has as its system patients with cerebral vasospasm. Conditions: human, in vivo.
Setting [4] is: IM, lower doses than 90 to 120 mg.

Entries after “also recorded” stand apart in the source; their conditions may differ. Where a name gives a salt, the structure may show the parent alone. Read-outs that look alike come from different tables or passages of the source.

`CC(C)NCC(O)COc1cccc2ccccc12` (centres unmarked) [Inderal, Propranolol]: the “smoothing out the sympathetic nervous system excitability and variability” value in data set [1] (patients being tapered off vasodilators) was “most effective; also recorded: extremely effective”. Also, the “effectiveness in treating the vasospasm” value in data set [1] was “None of these have been significantly effective at vasodilation”. Moreover, the “EEG and flow abnormalities on Transcranial Doppler” value in data set [2] was “without change in their EEG and continued flow abnormalities”.

Take `CN1C[C@H](C(=O)N[C@]2(C)O[C@@]3(O)[C@@H]4CCCN4C(=O)[C@H](Cc4ccccc4)N3C2=O)C[C@@H]2c3cccc4[nH]cc(c34)C[C@H]21` [DHE]: in data set [1], the “effect on vessels seen on TCD / ultrasound (vasoconstriction or dilatation)” value is listed as “caused vasoconstriction”; the headache entry was “improved their headache”; the “neurological exam and other neurological abnormalities” value was “worsened the patient's neurological exam and mentation”.

As to `CNCCC(Oc1ccc(C(F)(F)F)cc1)c1ccccc1` (centres unmarked) [Prozac], the “effectiveness in treating the vasospasm” value in data set [1] is “helpful”.

With `COc1ccc([C@@H]2Sc3ccccc3N(CCN(C)C)C(=O)[C@@H]2OC(C)=O)cc1` [Dilacor, Diltiazem], the “effectiveness in treating the vasospasm” value in data set [1] was “less effective”.

Consider `O=C(CCCN1CCC(O)(c2ccc(Cl)cc2)CC1)c1ccc(F)cc1` [Haldol, Haloperidol], for which the “response of psychosis (hallucinations and delusions)” value in data set [2] was “did not respond; also recorded: poor response”.

Regarding `CNS(=O)(=O)Cc1ccc2[nH]cc(CCN(C)C)c2c1` [Imitrex, sumatriptan succinate], in data set [1], the “effect on vessels seen on TCD / ultrasound (vasoconstriction or dilatation)” value is on record as “caused vasoconstriction”; the headache entry was “improved their headache”; the “neurological exam and other neurological abnormalities” value is “worsened the patient's neurological exam and mentation”.

With `COc1cc2nc(N3CCN(C(=O)C4COc5ccccc5O4)CC3)nc(N)c2cc1OC` (centres unmarked) [Cardura, Doxazosin], in data set [1], the “effectiveness in treating the vasospasm” value is given as “relatively mild medication”.

With `CC(COc1ccccc1)N(CCCl)Cc1ccccc1` (centres unmarked) [Dibenzyline, Phenoxybenzamine], the “effectiveness in treating the vasospasm” value in data set [1] is “relatively mild”.

For `Cc1nc2n(c(=O)c1CCN1CCC(c3noc4cc(F)ccc34)CC1)CCCC2` [Respiradol, Respiradone], in data set [1] (antipsychotic agents in patients with vasospasm), the “patient's symptoms” value is listed as “generally improved the patient's symptoms”. Besides, in data set [1], the “effect on vessels seen on TCD / ultrasound (vasoconstriction or dilatation)” value is listed as “no significant improvement on ultrasound”. The tolerability entry in data set [3] is “less well-tolerated in comparison with Thorazine and Navane”.

Turning to `CN(C)CCCN1c2ccccc2Sc2ccc(Cl)cc21` [Thorazine, Chlorpromazine], the “effectiveness in treating the vasospasm” value in data set [1] is given as “moderately effected; also recorded: moderately effective”.

In the case of `COC(=O)C1=C(C)NC(C)=C(C(=O)OC(C)C)C1c1cccc2nonc12` (centres unmarked) [Dynacirc, isradipine], in data set [1], the “effect on vessels seen on TCD / ultrasound (vasoconstriction or dilatation)” value is listed as “resulted in vascular dilatation”; the headache entry was “alleviated or treated the headache”; the “neurological exam and other neurological abnormalities” value was “clinical and neurological exam improvement”; the “effectiveness in treating the vasospasm” value is “extremely effective”. The “transient supersensitivity (transient worsening of the vasospasm) on early administration” value (“transient supersensitivity” for short) in data set [3] is on record as “did not occur”.

With `CC(CCc1ccccc1)NCC(O)c1ccc(O)c(C(N)=O)c1` (centres unmarked) [Normodyne, Labetolol], the “effectiveness in treating the vasospasm” value in data set [1] is listed as “None of these have been significantly effective at vasodilation”.

Take `O=C(O)C(O)C(O)C(=O)O.Oc1ccc2c(c1)[C@@]13CCCC[C@@]1(O)[C@@H](C2)N(CC1CCC1)CC3` [Stadol, butorphanol tartrate]: in data set [1], the “effect on vessels seen on TCD / ultrasound (vasoconstriction or dilatation)” value is reported as “caused vasoconstriction”; the headache result is given as “improved their headache”; the “neurological exam and other neurological abnormalities” value was “worsened the patient's neurological exam and mentation”.

For the molecule `CC(C)NCC(O)COc1ccc(CC(N)=O)cc1` (centres unmarked) [Tenormin, Atenolol], the “effectiveness in treating the vasospasm” value in data set [1] is “None of these have been significantly effective at vasodilation”.

In the case of `NC(=O)N1c2ccccc2C=Cc2ccccc21` [Tegretol, Carbamazepine], in data set [1], the “EEG abnormalities and neurocognitive or neurological complaints” value was “improved in some patients”; the “change of the vasospasm” value is on record as “none of the medications in therapeutic doses have changed the vasospasm”.

As to `COCCc1ccc(OCC(O)CNC(C)C)cc1` (centres unmarked) [Lopressor, Metoprolol Tartrate], in data set [1], the “effectiveness in treating the vasospasm” value is listed as “None of these have been significantly effective at vasodilation”.

As to `CCCC(CCC)C(=O)[O-].[Na+]` [Depakote, Sodium Valproate], in data set [1], the “EEG abnormalities and neurocognitive or neurological complaints” value is reported as “improved in some patients”; the “change of the vasospasm” value is on record as “none of the medications in therapeutic doses have changed the vasospasm”. Further, the “EEG and flow abnormalities on Transcranial Doppler” value in data set [2] is “without change in their EEG and continued flow abnormalities”.

With `NCCCC[C@H](N[C@@H](CCc1ccccc1)C(=O)O)C(=O)N1CCC[C@H]1C(=O)O` [Zestril, Lisinopril], in data set [1], the “effectiveness in treating the vasospasm” value is reported as “extremely effective”.

Regarding `COc1cc2nc(N3CCN(C(=O)C4CCCO4)CC3)nc(N)c2cc1OC` (centres unmarked) [Hytrin, Terazosin], in data set [1], the “effectiveness in treating the vasospasm” value is “less successful results; also recorded: has not been found to be effective”.

`CCOC(=O)[C@H](CCc1ccccc1)N[C@@H](C)C(=O)N1Cc2ccccc2C[C@H]1C(=O)O` [Accupril, Quinapril]: the “effectiveness in treating the vasospasm” value in data set [1] was “consistently been the most effective”. In data set [1] (with concomitant low dose Nitroglycerin, 1/10th inch once to several times a day), the “weaning from oral medications” value is on record as “most patients may be eventually weaned from the use of oral medications”.

Regarding `NNc1nncc2ccccc12` [Hydralazine], in data set [3], the blood pressure changes entry is “tends to cause significant blood pressure changes” and the “transient supersensitivity” value is listed as “did not occur”.

Regarding `CCOC(=O)[C@H](CCc1ccccc1)N[C@H]1CCc2ccccc2N(CC(=O)O)C1=O` [Lotensin, Benazepril], in data set [1], the “effectiveness in treating the vasospasm” value was “close second tier medications”.

As to `O=C1NC(=O)C(c2ccccc2)(c2ccccc2)N1` [Dilantin, Phenytoin], in data set [1], the “EEG abnormalities and neurocognitive or neurological complaints” value was “improved in some patients”; the “change of the vasospasm” value is reported as “none of the medications in therapeutic doses have changed the vasospasm”.

As for `CSc1ccc2c(c1)N(CCC1CCCCN1C)c1ccccc1S2` (centres unmarked) [Mellaril, Thioridazine], the “effectiveness in treating the vasospasm” value in data set [1] is “has not been effective; also recorded: no significant effects”.

For the molecule `C[C@H](CS)C(=O)N1CCC[C@H]1C(=O)O` [Capoten, Captopril], in data set [1], the “effectiveness in treating the vasospasm” value is listed as “close second tier medications”.

As for `NCCCC[C@H](N[C@@H](CCc1ccccc1)C(=O)O)C(=O)N1CCC[C@H]1C(=O)O` [Prinivil, Lisinopril], in data set [1], the “effectiveness in treating the vasospasm” value is listed as “close second tier medications”.

As to `O=C(c1ccccc1)c1ccc2n1CCC2C(=O)O` (centres unmarked) [Toradol, ketorolac tromethamine], the “effect on Transcranial Doppler ultrasound” value in data set [1] (90 to 120 mg IM doses) is “causes acute vasodilation on ultrasound in most patients”. For the same molecule, the “reversal of reactive vasoconstriction (Nitric Oxide sensitivity reaction) after first nitrate dose” value in data set [1] (IM) was “can be immediately reversed”. In addition, the effectiveness result in data set [1] (IM, doses lower than 90-120 mg) is given as “not so effective”. In addition, in data set [1] (setting [4]), the “effect on Transcranial Doppler ultrasound” value is given as “generally do not show significant changes” and the patient-reported symptoms entry is reported as “symptomatic improvement”. The “improvement on Transcranial Doppler Artery Ultrasound” value in data set [1] (IV, 30 to 60 mg doses) was “does not cause any improvement”. For the same molecule, in data set [1], the “effect on vessels seen on TCD / ultrasound (vasoconstriction or dilatation)” value was “resulted in vascular dilatation”; the headache entry is “alleviated or treated the headache”; the “neurological exam and other neurological abnormalities” value is “clinical and neurological exam improvement”. In addition, the vasodilation result in data set [1] (intramuscularly (I.M.) or oral form after oral or I.M. loading) is recorded as “gives the expected vasodilation”.

Consider `CN1CCN(CC/C=C2/c3ccccc3Sc3ccc(S(=O)(=O)N(C)C)cc32)CC1` [Navane, Thiothixene], for which the “improvement in the Transcranial Doppler Artery Ultrasound” value in data set [1] (patients with TCD mean flow velocities greater than 1.3, within a half hour of 2 mg in 4 ounces of water orally, generally expected) was 50%. The blood pressure changes result in data set [1] (patients with vasospasm) is given as “without causing peripheral blood pressure changes”. Moreover, the “effectiveness in treating the vasospasm” value in data set [1] is on record as “extremely effective central vasodilator”; in data set [1] (listed as Navanne) it was “most effective”. In addition, in data set [2], the “response of psychosis (hallucinations and delusions)” value was “good response”.

With `COC(=O)[C@H]1[C@H]2C[C@@H]3c4[nH]c5cc(OC)ccc5c4CCN3C[C@H]2C[C@@H](OC(=O)c2cc(OC)c(OC)c(OC)c2)[C@@H]1OC` [Reserpine], the “effectiveness in treating the vasospasm” value in data set [1] is recorded as “very effective; also recorded: extremely effective”.

As to `Clc1cccc(Cl)c1N=C1NCCN1` [Clonidine], in data set [1], the “effect on vessels seen on TCD / ultrasound (vasoconstriction or dilatation)” value is “resulted in vascular dilatation”; the headache result is given as “alleviated or treated the headache”; the “neurological exam and other neurological abnormalities” value is “clinical and neurological exam improvement”; the “effectiveness in treating the vasospasm” value is recorded as “extremely effective”. Moreover, in data set [1] (patients who could not tolerate or respond to other vasodilators), the “treating migraine induced depression due to chronic vasospasm” value is reported as “useful in these depressed patients”. Also, the “transient supersensitivity” value in data set [3] is “did not occur”.
